From patent US8158606B2, “β-L-2′-deoxynucleosides for the treatment of resistant HBV strains and combination therapies” (priority 2002, dated 2012)
≈ marks a conversion by molar mass, not a printed value. Where “and” joins values, the source holds several entries; their conditions need not be identical. Equal entries are not always repeated. Structures can show the parent of a compound that is named as a salt. Where two headings read alike, the source gives them in different places.

Columns and labels:
[1] = tested on: L515M/M552V mutant HBV, cell line MV5/B3; test: Antiviral testing in stable HepG2 cell lines, EPA of intracellular nucleocapsids; assay type: cell-based, hepatitis B virus
Experimental: (§1) Recombinant DNA constructs corresponding to these lamivudine-resistant mutants were created by site directed mutagenesis. The test system comprised stable cell lines harboring each of the transfected mutant genomes, as well as a wild-type control HBV genome. The antiviral activity of LdT (telbivudine) and LdC, together with the control drugs lamivudine and PMEA, was determined against the mutant and wild-type HBV genomes in the respective test cell lines.
(§2) Endogenous Polymerase Assay (EPA) of cell lysate: Cells were grown in 12-well collagen plates to 100% confluency for 3-4 days and cytosolic lysates were prepared in 1 ml of 50 mM Tris-HCl pH 7.4, 150 mM NaCl, 5 mM MgCl2, 0.2% NP-40. EPAs were essentially performed as described (Seifer et al., 1998). […] The immobilized capsids were then washed, endogenous polymerase reactions were initiated in 50 ul reaction volume containing 50 mM Tris-HCl pH7.4, 75 mM NH4Cl, 1 mM EDTA, 20 mM MgCl2, 0.1 mM β-ME, 0.5% NP-40, 100 μM cold dGTP, TTP, dCTP, and 50 nM ^33P-dATP (Perkin Elmer Life Sciences Cat# NEG 612H), and incubated overnight at 37° C. Following digestion with 1 mg/ml of Proteinase K (Roche, Cat#1373196) for 1 h at 37° C., ^33P-labeled HBV DNA was liberated via phenol/chloroform extraction The nucleic acids were finally precipitated with equal volumes 5M NH4-acetate and 2.5 volumes 100% EtOH and separated on a 1% native agarose gel in Tris-borate buffer. Gels were either fixed with 7% TCA, then dried, or blotted onto positively charged nylon membrane (Pall Biodyne Plus Cat#60406) overnight at room temperature via capillary transfer in 0.4 N NaOH. Dried gels/membranes were exposed to a phosphoimager screen (Molecular Dynamics) overnight at room temperature, then scanned (Storm 860, Molecular Dynamics) and quantitated with ImageQuant (Molecular Dynamics) software.
(§3) 12-well Biocoat collagen I plates (Becton Dickinson Cat#35-4500) are seeded with cells at a density of 0.5-1×10^6 cells per well in 2 ml DMEM containing 5% FBS, 2 mM L-glutamine, 100 I.U. penicillin/100 μg/mL streptomycin, and 0.5 mg/mL G-418.
(§4) Drug dilutions are prepared freshly in 100% DMSO as 200× stocks. For each experiment, 4 aliquots of each drug dilution series are stored at −20° C. until used. Once cells reach confluency, drug treatment is initiated by adding 10 μL of drug dilution into 2 ml of fresh DMEM+5% FBS. […] The no-drug control well receives only 10 μl of DMSO. Cells are treated every other day with 2 mL of fresh drug/medium for a total of 8 days. Cell lysates are then collected on day 10 as described below:
(§5) Aspirate media and rinse cell monolayer carefully once with 1 mL of PBS.
(§6) Add 1 ml of lysis buffer (50 mM Tris-HCl pH 7.5/150 mM NaCl/5 mM MgCl2/0.2% NP-40). Store on ice for 30 min to 4 h.
(§7) Harvest lysed cells. Transfer to 1.5 ml microfuge tubes.
(§8) Clarify lysate by spinning for 5 min at RT and 14,000 rpm.
(§9) Transfer clarified lysate to fresh tubes. Snap-freeze on dry-ice and store at −80° C. until ready to continue with endogenous polymerase assays essentially as described above.
(§10) EC50's were generated from the phosphorimager data by curve fitting using Xlfit software.

[2] = tested on: M552V mutant HBV, cell line V1/C9; test: as above; assay type: cell-based, hepatitis B virus; conditions: for EC50: cell line V1/C9, mean ± SD of three to four experiments
Experimental: as §1, §2, §3, §4, §5, §6, §7, §8, §9, §10

[3] = tested on: M552I mutant HBV, cell line I2; test: as above; assay type: cell-based, hepatitis B virus
Experimental: as §1, §2, §3, §4, §5, §6, §7, §8, §9, §10

[4] = tested on: L515M/M552I mutant HBV, cell line MI4; test: as above; assay type: cell-based, hepatitis B virus
Experimental: as §1, §2, §3, §4, §5, §6, §7, §8, §9, §10

[5] = tested on: wild-type HBV (ayw), cell line WT3/C1; test: as above; assay type: cell-based, hepatitis B virus; conditions: WT (ayw); for EC50: cell line WT3/C1, mean ± SD of three to four experiments
Experimental: as §1, §2, §3, §4, §5, §6, §7, §8, §9, §10

[6] = Solubility study in water (HPLC calibration)
[7] = Log P study, octanol-1 / phosphate buffer; conditions: for P (B/A): octanol-1 (B) / 0.02 M phosphate buffer pH 7.2 (A), Study 1 and Study 2; for log P (octanol/water): octanol-1 / 0.02 M phosphate buffer pH 7.2
Experimental: To 1 mL of this solution, 1 mL of octanol-1 (B) saturated with 0.02 M phosphate buffer solution (A) was added. The resultant mixture was shaken and centrifuged; three samples from each phase was collected and analyzed by HPLC, as shown in Table 10.
The solution was then saturated with octanol-1 (B). To 1 mL of this solution, 1 mL of octanol-1 (B) saturated with 0.02 M phosphate buffer solution (A) was added. The resultant mixture was shaken and centrifuged; three samples from each phase was collected and analyzed by HPLC, as shown in Table 11.

[8] = tested on: cytosolic extracts of HepG2 cells; test: Steady state phosphorylation kinetics in cytosolic extracts; assay type: biochemical, human; conditions: cytosolic extracts of HepG2 cells as enzyme source
[9] = tested on: hepatitis B virus; conditions: clinical studies; cited from earlier work
[10] = target: hepatitis B virus deoxyribonucleic acid (DNA) polymerase (Hepatitis B virus genotype D subtype ayw, UniProt P03156); test: biochemical
[11] = Stability study in buffer at pH 7.4, 7.20, 4.5 and 1.2; assay type: physicochemical; conditions: pH 1.2, no decomposition products detected for up to 23 hours
[12] = assay type: physicochemical; conditions: octanol-1 (B) / MilliQ water pH 6.5 (A′), Study 1 and Study 2, listed as L-dC-5′-valinyl ester hydrochloride
Experimental: (§11) To 1 mL of this solution, 1 mL of octanol-1 (B) saturated with MilliQ water (A′) was added.
as §11

[13] = Hepatitis B virus, HepG2, L515M/M552V, cell line MV5/B3, mean ± SD of three to four experiments, read-out: EC50
[14] = Hepatitis B virus, HepG2, M552V
[15] = Hepatitis B virus, HepG2, M552I, cell line I2, mean ± SD of three to four experiments, read-out: EC50
[16] = Hepatitis B virus, HepG2, L515M/M552I, cell line MI4, mean ± SD of three to four experiments, read-out: EC50
[17] = listed as 3′-valinyl ester hydrochloride of β-L-dC

hepatitis B virus deoxyribonucleic acid (DNA) polymerase, sequence (P03156 whole entry): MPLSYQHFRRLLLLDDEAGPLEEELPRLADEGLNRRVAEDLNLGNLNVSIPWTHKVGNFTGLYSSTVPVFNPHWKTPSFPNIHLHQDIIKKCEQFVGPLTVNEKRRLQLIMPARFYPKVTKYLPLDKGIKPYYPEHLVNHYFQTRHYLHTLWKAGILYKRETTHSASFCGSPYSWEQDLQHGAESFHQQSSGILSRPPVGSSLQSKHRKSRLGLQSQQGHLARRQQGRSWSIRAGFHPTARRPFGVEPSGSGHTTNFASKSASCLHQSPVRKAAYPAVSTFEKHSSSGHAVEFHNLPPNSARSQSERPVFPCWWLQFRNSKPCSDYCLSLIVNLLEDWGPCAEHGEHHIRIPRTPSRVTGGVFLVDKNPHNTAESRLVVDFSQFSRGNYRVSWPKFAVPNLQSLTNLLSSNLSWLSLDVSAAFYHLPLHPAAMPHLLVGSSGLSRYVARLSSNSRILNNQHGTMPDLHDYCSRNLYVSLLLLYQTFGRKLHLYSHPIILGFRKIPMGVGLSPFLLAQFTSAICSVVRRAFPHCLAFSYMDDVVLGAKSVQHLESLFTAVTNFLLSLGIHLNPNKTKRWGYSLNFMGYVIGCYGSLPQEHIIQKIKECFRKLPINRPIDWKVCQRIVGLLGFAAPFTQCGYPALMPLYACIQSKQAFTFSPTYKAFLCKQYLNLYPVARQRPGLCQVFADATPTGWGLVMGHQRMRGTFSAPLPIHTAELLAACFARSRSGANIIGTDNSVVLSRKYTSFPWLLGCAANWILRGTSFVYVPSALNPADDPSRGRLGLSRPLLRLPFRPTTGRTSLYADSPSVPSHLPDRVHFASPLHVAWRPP

Nc1ncnc2c1ncn2CCOCP(=O)(O)O [PMEA, 9-{2-(phosphonomethoxy)ethyl}adenine, reference compound]
EC50 [1, 13]: 0.62 ± 0.3 µM
activity against the mutant, in words ([1]; L515M/M552V double mutant): retained significant activity
X Resist. (fold resistance) ([1]; L515M/M552V, EC50 mutant divided by EC50 wild-type): 3.3 ± 2.9
EC50 [2, 14]: 1.02 ± 0.22 µM
activity against the mutant, in words ([2]; M552V single mutant): retained significant activity
X Resist. (fold resistance) ([2]; M552V, EC50 mutant divided by EC50 wild-type): 3.8 ± 2.3
EC50 [3, 15]: 1.6 ± 1.12 µM
activity against the mutant, in words ([3]; M552I single mutant): retained significant activity
X Resist. (fold resistance) ([3]; M552I, EC50 mutant divided by EC50 wild-type): 4.6 ± 3.0
EC50 [4, 16]: 1.49 ± 0.3 µM
activity against the mutant, in words ([4]; L515M/M552I double mutant): retained significant activity
X Resist. (fold resistance) ([4]; L515M/M552I, EC50 mutant divided by EC50 wild-type): 3.6 ± 1.1
EC50 ([5]; Hepatitis B virus, HepG2): 0.33 ± 0.17 µM
X Resist. (fold resistance) ([5]; EC50 mutant divided by EC50 wild-type): 1

CC(C)[C@H](N)C(=O)O[C@@H]1C[C@@H](n2ccc(N)nc2=O)O[C@H]1CO.Cl [3′-val-L-dC, 3′-valinyl ester hydrochloride of β-L-dC]
Solubility (g/L) [6]: >408 g/L
Solubility (g/L) [6, 17]: > 408 g/L
Solubility (mol/L) [6, 17]: greater than 1.023 mol/L
P (B/A) ([7]; listed as L-dC-3′-valine ester hydrochloride): 0.0296 and 0.0293
log P (octanol/water) [7]: −1.53

Nc1ccn([C@@H]2CS[C@H](CO)O2)c(=O)n1 [lamivudine, (−)-enantiomer of BCH-189 (2′,3′-dideoxy-3′-thiacytidine), reference compound]
EC50 ([1]; Hepatitis B virus, HepG2, L515M/M552V double mutant): > 1000 µM
EC50 [1, 13]: ≥ 1000 µM
EC50 [2, 14]: 0.96 ± 0.36 µM
EC50 ([3]; Hepatitis B virus, HepG2, M552I single mutant): > 1000 µM
EC50 [3, 15]: ≥ 1000 µM
EC50 ([4]; Hepatitis B virus, HepG2, L515M/M552I double mutant): > 1000 µM
EC50 [4, 16]: ≥ 1000 µM
EC50 ([5]; Hepatitis B virus, HepG2): 0.05 ± 0.03 µM

Cc1cn([C@H]2C[C@H](O)[C@@H](CO)O2)c(=O)[nH]c1=O [Thd, D-thymidine]
maximum initial velocity (Vmax) of phosphorylation [8]: 1.26 nmol/min/mg protein

Interferon alpha-2b
patients with no evidence of the hepatitis B virus in their blood over time [9]: 45%

Nc1ccn([C@H]2C[C@H](O)[C@@H](CO)O2)c(=O)n1 [D-dC, D-Deoxycytidine]
maximum initial velocity (Vmax) of phosphorylation [8]: 2.15 nmol/min/mg protein
Solubility (g/L) [6]: 272 g/L (≈ 1200 mM)
Solubility (mol/L) [6]: 1.03 mol/L (≈ 234 mg/mL)
Concentration (mol/L) of single samples ([6]; 1st-3rd HPLC sample of the saturated (D-dC) or most concentrated available solution): 1.07 mol/L and 1.08 mol/L and 0.96 mol/L
P (B/A) [7]: 0.039
log P (octanol/water) [7]: −1.41

O=c1ccn([C@@H]2C[C@@H](O)[C@H](COP(=O)(O)OP(=O)(O)OP(=O)(O)O)O2)c(=O)[nH]1 [L-dU-TP, β-L-2′-deoxyuridine 5′-triphosphate]
IC50 [10]: 5.26 µM

CC(C)[C@H](N)C(=O)OC[C@@H]1O[C@H](n2ccc(N)nc2=O)C[C@H]1O [5′-val-L-dC, 5′-L-valine ester of 2′-deoxy-β-L-cytidine hydrochloride]
stability in words [11]: fully stable
P′ (B/A′) [12]: 1.54 × 10^−3 and 2.04 × 10^−3

CC(=O)OC[C@@H]1O[C@H](n2ccc(N)nc2=O)C[C@H]1OC(C)=O [3′5′-diacetyl-L-dC, 3′,5′-Di-O-acetyl-2′-deoxy-β-L-cytidine]
log P (octanol/water) [7]: −0.74

Nc1ccn([C@@H]2C[C@@H](O)[C@H](CO)O2)c(=O)n1 [LdC-HCl]
EC50 ([1]; L515M/M552V, cell line MV5/B3, mean ± SD of three to four experiments, read-out: EC50): 777 ± 99 µM
EC50 ([2]; M552V): 0.36 ± 0.13 µM
EC50 ([3]; M552I, cell line I2, mean ± SD of three to four experiments, read-out: EC50): ≥ 1000 µM
EC50 ([4]; L515M/M552I, cell line MI4, mean ± SD of three to four experiments, read-out: EC50): ≥ 1000 µM
EC50 [5]: 0.18 ± 0.09 µM
